This is an account of results in patent publication US20250127913A1, “BIFUNCTIONAL FOLATE RECEPTOR BINDING COMPOUNDS” (LYCIA THERAPEUTICS, INC., priority 2021, published 2025).

Experiment [1] has as its system TNFα trimer complex to folate receptor (FOLR2). Briefly: SPR co-engagement of compound-TNFα trimer complex to folate receptor. The conditions noted are these: TNFα + 10 nM compound binding FOLR2. As for the experimental part: The active (Flow cell 2) surfaces of a Cytiva CM5 Series S Sensor Chip functionalized with FOLR2 as described in Example 58. Example compounds were diluted to 10 nM with 50 and 100 nM TNFα single chain trimer or 150 nM and 300 nM TNFα native monomer in running buffer (10 mM HEPES, 150 mM NaCl, 0.05% T20, pH 7.5, 2% DMSO), allowed to incubate for 5 hours at 25° C. and then flowed over the active and reference surfaces for 110 s, and then allowed to dissociate in running buffer for 600 s, at a flow rate of 30 μL/min. The FOLR2 immobilized active surface and the reference surface were regenerated with a 30 s pulse of 4M MgCl2 at 30 μL/min then allowed to equilibrate 240 s. Sensorgrams were solvent corrected, double-referenced, and the data fitted and analyzed in Biacore Insight Evaluation Software Version 3.0.11.15423.

Another experiment deals with FOLR2 (Homo sapiens (Human), UniProt P14207). Put plainly: SPR binding kinetics of compounds to folate receptor (FOLR2 immobilized on CM5 chip). As to the method:
A Biacore 8K+ was used to measure the association and dissociation rates of example compounds to FOLR2 (Acro Biosystems, Cat: F02-H5223-100 μg). Briefly, FOLR2 was reconstituted according to the manufacture's instructions to 200 μg/mL. Both the active and reference surfaces of a Cytiva CM5 Series S Sensor Chip were activated with a 1:1 mixture of 400 mM EDC and 100 mM NHS for 420 s at 10 μL/min. 25 μg/mL FOLR2 diluted in Sodium Acetate pH 5.5 was injected on the active channel (Flow Cell 2) for 420 s at 10p/min. Both the reference and active surfaces were then capped with 1M ethanolamine, pH 8.5 for 420 s, achieving an immobilization level of ˜4200 RU. Example compounds were serially diluted 1:1 in running buffer (10 mM HEPES, 150 mM NaCl, 0.05% T20, pH 7.5, 2% DMSO) from 100 nM to 3.125 nM and flowed over the active and reference surfaces for 120 s, and then allowed to dissociate in running buffer for 600 s, at 30 uL/min. The FOLR2 immobilized active surface and the reference surface were regenerated with a 30 s pulse of Sodium Acetate pH 5.5 at 30 μL/min. Sensorgrams were solvent corrected, double-referenced, and the data fitted and analyzed in Biacore Insight Evaluation Software Version 3.0.11.15423.
(In general: Surface plasmon resonance follows binding to a sensor surface in real time, without labels.)

The subject of the next experiment is THP-1 cells. Briefly: Compound mediated uptake of TNFα-pHrodo in THP-1 cells (flow cytometry). The arrangement: key to Uptake in THP1 cells (run) 2 / Uptake in THP1 cells (run) 3 / Uptake in THP1 cells (run) 4: + = ΔMFI less than that of I-17; ++ = ΔMFI ≈ to that of I-17; +++ = ΔMFI greater than that of I-17. It is filed as cell-based. The conditions noted are these: ΔMFI compared with I-17, uptake at 10 μM. As to the method: THP-1 cells, a monocytic leukemia cell line that endogenously express folate receptor beta, were used as a model system to measure example compound stimulated uptake of in-house produced TNFα conjugated to the pH sensitive fluorescent dye pHrodo green (ThermoFisher Scientific #P35369).
THP-1 cells were maintained in RPMI (Gibco #61870143) with 10% v/v FBS (VWR #89510-188) with 2 mM L-alanyl-L-glutamine dipeptide, 100 units/ml penicillin and 100 μg/ml streptomycin (Gibco #15140148). Cells were pelleted, resuspended in folate-free RPMI (Gibco #27016021) and seeded at 50,000 cells per well of a 96 well plate. Example compound was added to each well as a log 2 dilution series ranging from 20 μM to 125 nM final concentration. Cells were incubated for 24 hrs and washed/resuspended in phosphate buffered saline (pH 7.4) with 1% w/v BSA. Uptake was measured using a Novocyte Advanteon Flow Cytometer (Agilent Technologies) with the […] and FITC detection configuration.
On the technique in general: In flow cytometry, cells or beads pass a laser one at a time.

In a further experiment the target is TNFα trimer (Homo sapiens, UniProt P01375). Put plainly: SPR binding kinetics of compounds to TNFα trimer. The conditions noted are these: class symbols. As to the method:
Streptavidin 100 μg/mL Streptavidin (Invitrogen Cat #: 434302) diluted in 10 mM sodium acetate, pH 4.5) was immobilized to both the reference and active surfaces as described in Example 51. The surfaces were conditioned with three injections of running Buffer (10 mM HEPES, 150 mMNaCl, 0.05% T20, pH 7.5, 2% DMSO) at a flow rate of 10 μL/min, Contact time: 60 s. Flow rate: 10 μL/min. The active surface was treated with biotinylated linked TNFα trimer 20 μg/mL diluted in running buffer at a flow rate of 5 μL/min contact time: 600 s, yielding a final response of ˜3000 RU. Example compounds were then serially diluted 1:1 in running buffer (10 mM HEPES, 150 mM NaCl, 0.05% T20, pH 7.5, 2% DMSO) from 30 uM to 937.5 nM and flowed over the active and reference surfaces from lowest concentration to greatest concentration in the single-cycle kinetics format, and then allowed to dissociate in running buffer for 7200 s, at 30 μL/min. Sensorgrams were solvent corrected, double-referenced, and the data fitted and analyzed in Biacore Insight Evaluation Software Version 3.0.11.15423.

Chain of TNFα trimer (P01375 77-233 limits assumed): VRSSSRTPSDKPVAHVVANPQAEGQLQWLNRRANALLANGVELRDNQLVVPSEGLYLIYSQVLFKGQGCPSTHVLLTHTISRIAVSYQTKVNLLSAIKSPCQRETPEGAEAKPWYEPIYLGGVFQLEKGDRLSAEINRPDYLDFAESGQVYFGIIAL
Chain of FOLR2 (P14207 17-255): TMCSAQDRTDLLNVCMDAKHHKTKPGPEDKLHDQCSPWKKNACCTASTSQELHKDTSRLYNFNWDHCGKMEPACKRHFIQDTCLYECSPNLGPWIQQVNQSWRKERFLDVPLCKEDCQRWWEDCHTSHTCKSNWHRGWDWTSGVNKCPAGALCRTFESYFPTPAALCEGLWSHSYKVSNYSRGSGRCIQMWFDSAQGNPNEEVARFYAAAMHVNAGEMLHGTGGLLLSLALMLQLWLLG

Turning to `Cc1nc2cc(F)c(-c3cnc(OCCCCCn4cc(CNC(=O)CC[C@H](NC(=O)c5ccc(NCc6cnc7nc(N)nc(O)c7n6)cc5)C(=O)O)nn4)nc3)nc2c(N[C@H](C)c2cc(C#N)ccc2F)c1Cl` [Compound I-14, N2-(4-(((2-amino-4-hydroxypteridin-6-yl)methyl)amino)benzoyl)-N5-((1-(5-((5-(7-chloro-8-(((R)-1-(5-cyano-2-fluorophenyl)ethyl)amino)-3-fluoro-6-methyl-1,5-naphthyridin-2-yl)pyrimidin-2-yl)oxy)pentyl)-1H-1,2,3-triazol-4-yl)methyl)-L-glutamine], in experiment [1], the “co-engagement / complex formation observed on SPR” value was “complex formation observed”. The same compound came in with a dissociation constant Kd on FOLR2 of 0.2 nM. In the experiment on THP-1 cells, the “Uptake in THP1 cells (run) 2” value is recorded as “+” and the “Uptake in THP1 cells (run) 3” value is recorded as “++”. At TNFα trimer, the dissociation constant Kd is under 100 nM.

For `Cc1nc2cc(F)c(-c3cnc(OCCCCCn4cc(COCCOCCOCCOCCOCCOCCNC(=O)CC[C@H](NC(=O)c5ccc(NCc6cnc7nc(N)nc(O)c7n6)cc5)C(=O)O)nn4)nc3)nc2c(N[C@H](C)c2cc(C#N)ccc2F)c1Cl` [Compound I-18, (S)-24-(4-(((2-amino-4-hydroxypteridin-6-yl)methyl)amino)benzamido)-1-(1-(5-((5-(7-chloro-8-((I-1-(5-cyano-2-fluorophenyl)ethyl)amino)-3-fluoro-6-methyl-1,5-naphthyridin-2-yl)pyrimidin-2-yl)oxy)pentyl)-1H-1,2,3-triazol-4-yl)-21-oxo-2,5,8,11,14,17-hexaoxa-20-azapentacosan-25-oic acid], the “co-engagement / complex formation observed on SPR” value in experiment [1] is “complex formation observed”. Further, at FOLR2, the equilibrium dissociation constant (Kd) amounted to 0.4 nM. Also, in the experiment on THP-1 cells, the “Uptake in THP1 cells (run) 2” value is “+++”, the “Uptake in THP1 cells (run) 3” value is recorded as “++” and the “Uptake in THP1 cells (run) 4” value is reported as “+++”. Moreover, the dissociation constant (Kd) at TNFα trimer was under 100 nM.

Take `Cc1nc2cc(F)c(-c3cnc(OCCCCCn4cc(COCCOCCOCCOCCOCCOCCOCCOCCOCCOCCNC(=O)CC[C@H](NC(=O)c5ccc(NCc6cnc7nc(N)nc(O)c7n6)cc5)C(=O)O)nn4)nc3)nc2c(N[C@H](C)c2cc(C#N)ccc2F)c1Cl` [Compound I-20, (S)-36-(4-(((2-amino-4-hydroxypteridin-6-yl)methyl)amino)benzamido)-1-(1-(5-((5-(7-chloro-8-(((R)-1-(5-cyano-2-fluorophenyl)ethyl)amino)-3-fluoro-6-methyl-1,5-naphthyridin-2-yl)pyrimidin-2-yl)oxy)pentyl)-1H-1,2,3-triazol-4-yl)-33-oxo-2,5,8,11,14,17,20,23,26,29-decaoxa-32-azaheptatriacontan-37-oic acid]: the “co-engagement / complex formation observed on SPR” value in experiment [1] is recorded as “complex formation observed”. This compound returned a dissociation constant Kd on FOLR2 of 0.2 nM. Besides, in the experiment on THP-1 cells, the “Uptake in THP1 cells (run) 2” value is given as “+++”, the “Uptake in THP1 cells (run) 3” value is “+” and the “Uptake in THP1 cells (run) 4” value is given as “++”. For the same compound, the dissociation constant (Kd) at TNFα trimer was under 1000 nM.

Turning to `Cc1nc2cc(F)c(-c3cnc(OCCCCCn4cc(COCCNC(=O)CC[C@H](NC(=O)c5ccc(NCc6cnc7nc(N)nc(O)c7n6)cc5)C(=O)O)nn4)nc3)nc2c(N[C@H](C)c2cc(C#N)ccc2F)c1Cl` [Compound I-15, N2-(4-(((2-amino-4-hydroxypteridin-6-yl)methyl)amino)benzoyl)-N5-(2-((1-(5-((5-(7-chloro-8-((I-1-(5-cyano-2-fluorophenyl)ethyl)amino)-3-fluoro-6-methyl-1,5-naphthyridin-2-yl)pyrimidin-2-yl)oxy)pentyl)-1H-1,2,3-triazol 4-yl)methoxy)ethyl)-L-glutamine], the “co-engagement / complex formation observed on SPR” value in experiment [1] is listed as “complex formation observed”. At FOLR2, binding was characterised by a dissociation constant (Kd) of 0.3 nM. In addition, in the experiment with THP-1 cells, the “Uptake in THP1 cells (run) 3” value is on record as “+++” and the “Uptake in THP1 cells (run) 4” value is listed as “++”. The same compound returned a Kd at TNFα trimer of under 100 nM.

On to `Cc1nc2ccc(-c3ccc(N4CCN(CCOCCn5cc(COCCOCCOCCOCCNC(=O)CC[C@H](NC(=O)c6ccc(NCc7cnc8nc(N)nc(O)c8n7)cc6)C(=O)O)nn5)CC4)nc3)cn2c1Cc1ccccc1OC(F)F` (racemic) [Compound I-22, rac-(R)-18-(4-(((2-amino-4-hydroxypteridin-6-yl)methyl)amino)benzamido)-1-(1-(2-(2-(4-(5-(3-(2-(difluoromethoxy)benzyl)-2-methylimidazo[1,2-a]pyridin-6-yl)pyridin-2-yl)piperazin-1-yl)ethoxy)ethyl)-1H-1,2,3-triazol-4-yl)-15-oxo-2,5,8,11-tetraoxa-14-azanonadecan-19-oic acid], for which the “co-engagement / complex formation observed on SPR” value in experiment [1] is “complex formation observed”. Besides, binding on FOLR2 was characterised by a dissociation constant (Kd) of 0.3 nM. Further, in the experiment with THP-1 cells, the “Uptake in THP1 cells (run) 2” value is “+”, the “Uptake in THP1 cells (run) 3” value is given as “+” and the “Uptake in THP1 cells (run) 4” value is on record as “+”. Moreover, the dissociation constant (Kd) at TNFα trimer was under 5000 nM.

As a reminder, the Kd is a measure of binding affinity in units of concentration.
